By MIC is commonly meant the lowest concentration found to suppress growth. As usually defined, the IC50 is the concentration that inhibits the measured activity by half.

Each structure is given as a SMILES string. ≈ marks a conversion by molar mass, not a printed value. Like-named read-outs stand apart in the source and are kept apart here. Marks after values point to notes of the source that are not given here.

One experiment has as its system P. aeruginosa. The experiment in a line: Broth microdilution MIC, P. aeruginosa. Type of experiment: cell-based, Pseudomonas aeruginosa (ATCC 9027). Details: key: R: Resistant. How it is done: The antibacterial effect of (AJ) EO was determined utilizing several strains of bacteria, which were obtained from the American Type Culture Collection (ATCC): Pseudomonas aeruginosa (ATCC 9027), Escherichia coli (ATCC 25922), Klebsiella pneumonia (ATCC 13883), Proteus vulgaris (ATCC 8427), and Staphylococcus aureus (ATCC 25923), and from a diagnostically confirmed methicillin-resistant Staphylococcus aureus (MRSA). The antifungal activity of (AJ) EO was evaluated against the growth of Candida albicans (ATCC 90028). The antimicrobial activity of the (AJ) EO used in this study was estimated using the broth microdilution method. The (AJ) EO was dissolved in DMSO to a concentration of 200 µg/mL. The produced solution was serially micro-diluted (2-fold) 10 times in sterile Mueller–Hinton broth (Thermo Fisher Scientific, Waltham, MA, USA). The dilution processes were performed under aseptic conditions in 96-well plates. In the micro-wells that were assigned to evaluate the antibacterial activity of (AJ) EO, micro-well number 11 contained plant-free Mueller–Hinton broth, which was used as a positive control for microbial growth. Micro-well number 12 contained plant-free and microbial-free Mueller–Hinton broth, which was used as a negative control for microbial growth. […] The (AJ) EO antimicrobial activity was determined in triplicate. […]
(In general: Dilution methods test growth across graded concentrations, often in twofold steps.)

A further experiment has as its system P. vulgaris. The experiment in a line: Broth microdilution MIC, P. vulgaris. The format is cell-based, Proteus vulgaris (ATCC 8427). The method, then:
The antibacterial effect of (AJ) EO was determined utilizing several strains of bacteria, which were obtained from the American Type Culture Collection (ATCC): Pseudomonas aeruginosa (ATCC 9027), Escherichia coli (ATCC 25922), Klebsiella pneumonia (ATCC 13883), Proteus vulgaris (ATCC 8427), and Staphylococcus aureus (ATCC 25923), and from a diagnostically confirmed methicillin-resistant Staphylococcus aureus (MRSA). The antifungal activity of (AJ) EO was evaluated against the growth of Candida albicans (ATCC 90028). The antimicrobial activity of the (AJ) EO used in this study was estimated using the broth microdilution method. The (AJ) EO was dissolved in DMSO to a concentration of 200 µg/mL. The produced solution was serially micro-diluted (2-fold) 10 times in sterile Mueller–Hinton broth (Thermo Fisher Scientific, Waltham, MA, USA). The dilution processes were performed under aseptic conditions in 96-well plates. In the micro-wells that were assigned to evaluate the antibacterial activity of (AJ) EO, micro-well number 11 contained plant-free Mueller–Hinton broth, which was used as a positive control for microbial growth. Micro-well number 12 contained plant-free and microbial-free Mueller–Hinton broth, which was used as a negative control for microbial growth. Micro-wells numbered 1–11 were inoculated aseptically with the test microbes. The (AJ) EO antimicrobial activity was determined in triplicate. All the inoculated plates were incubated at 35 °C. Regarding C. albicans, the same method was used but using RPMI media (Thermo Fisher Scientific, Waltham, MA, USA) instead of Mueller–Hinton broth. The incubation period lasted for about 18–24 h for those plates inoculated with the test bacterial strains and for about 48 h for those plates inoculated with C. albicans. […]

The subject of another experiment is MRSA. The experiment in a line: Broth microdilution MIC, MRSA. Type of experiment: cell-based, methicillin-resistant Staphylococcus aureus. Details: key: R: Resistant. How it is done: (§1) The antimicrobial activity of the (AJ) EO used in this study was estimated using the broth microdilution method. The (AJ) EO was dissolved in DMSO to a concentration of 200 µg/mL. The produced solution was serially micro-diluted (2-fold) 10 times in sterile Mueller–Hinton broth (Thermo Fisher Scientific, Waltham, MA, USA). The dilution processes were performed under aseptic conditions in 96-well plates. In the micro-wells that were assigned to evaluate the antibacterial activity of (AJ) EO, micro-well number 11 contained plant-free Mueller–Hinton broth, which was used as a positive control for microbial growth. Micro-well number 12 contained plant-free and microbial-free Mueller–Hinton broth, which was used as a negative control for microbial growth. Micro-wells numbered 1–11 were inoculated aseptically with the test microbes. The (AJ) EO antimicrobial activity was determined in triplicate. All the inoculated plates were incubated at 35 °C. Regarding C. albicans, the same method was used but using RPMI media (Thermo Fisher Scientific, Waltham, MA, USA) instead of Mueller–Hinton broth. The incubation period lasted for about 18–24 h for those plates inoculated with the test bacterial strains and for about 48 h for those plates inoculated with C. albicans.

The test system of the next experiment is K. pneumoniae. The experiment in a line: Broth microdilution MIC, K. pneumoniae. The following applies: Klebsiella pneumoniae. The format is cell-based, Klebsiella pneumonia (ATCC 13883). The method, then:
as §1

The target of a further experiment is T1, human recombinant COX-2 (Homo sapiens, UniProt P35354).
T1 construct: purchased Cayman Chemical 560131
T1 sequence (P35354 18-604): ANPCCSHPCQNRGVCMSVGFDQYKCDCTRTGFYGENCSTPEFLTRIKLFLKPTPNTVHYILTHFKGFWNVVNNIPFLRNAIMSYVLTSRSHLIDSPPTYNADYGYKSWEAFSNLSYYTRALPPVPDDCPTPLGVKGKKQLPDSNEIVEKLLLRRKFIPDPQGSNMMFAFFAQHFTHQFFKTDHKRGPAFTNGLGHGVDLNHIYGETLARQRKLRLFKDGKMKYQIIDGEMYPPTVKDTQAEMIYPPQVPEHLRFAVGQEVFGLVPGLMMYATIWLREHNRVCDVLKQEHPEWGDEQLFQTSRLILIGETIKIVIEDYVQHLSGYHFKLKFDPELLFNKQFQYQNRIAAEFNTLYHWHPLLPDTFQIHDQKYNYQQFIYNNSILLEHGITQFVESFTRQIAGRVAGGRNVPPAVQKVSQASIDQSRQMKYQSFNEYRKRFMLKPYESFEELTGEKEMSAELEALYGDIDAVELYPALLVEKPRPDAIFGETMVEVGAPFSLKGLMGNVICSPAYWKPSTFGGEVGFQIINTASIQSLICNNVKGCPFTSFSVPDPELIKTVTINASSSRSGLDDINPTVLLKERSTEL
The experiment is described as follows: COX inhibitor screening assay kit, COX-2. The following applies: calculated from two concentrations (350 and 50 µg/mL); read-out: IC50 COX-2. The format is biochemical. The source says: The percentage inhibition of the two concentrations was used to calculate the IC50 [69, 70].

In another experiment the target is T2, bovine COX-1 (Ovis aries, UniProt P05979).
T2 construct: purchased Cayman Chemical 560131
T2 sequence (P05979 25-600): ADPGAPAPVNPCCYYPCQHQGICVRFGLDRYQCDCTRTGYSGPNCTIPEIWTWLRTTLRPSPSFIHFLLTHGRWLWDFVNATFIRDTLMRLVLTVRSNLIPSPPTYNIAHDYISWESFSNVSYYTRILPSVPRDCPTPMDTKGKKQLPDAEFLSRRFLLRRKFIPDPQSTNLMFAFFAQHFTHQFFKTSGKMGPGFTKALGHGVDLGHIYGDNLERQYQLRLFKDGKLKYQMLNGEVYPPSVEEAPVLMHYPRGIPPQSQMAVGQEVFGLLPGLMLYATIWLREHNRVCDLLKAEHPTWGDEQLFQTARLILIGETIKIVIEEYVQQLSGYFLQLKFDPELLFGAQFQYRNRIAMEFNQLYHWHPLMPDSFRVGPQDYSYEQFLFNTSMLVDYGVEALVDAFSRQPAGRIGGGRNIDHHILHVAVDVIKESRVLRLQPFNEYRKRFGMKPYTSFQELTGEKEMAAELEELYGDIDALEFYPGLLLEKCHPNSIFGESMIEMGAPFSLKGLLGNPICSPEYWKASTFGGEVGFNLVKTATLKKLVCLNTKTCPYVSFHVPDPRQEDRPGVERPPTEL
The experiment is described as follows: COX inhibitor screening assay kit, COX-1. Type of experiment: biochemical. Conditions: calculated from two concentrations (350 and 50 µg/mL); read-out: IC50 COX-1. How it is done:
The ability of the (AJ) EO to prevent the conversion of arachidonic acid to PGH2 by bovine COX-1 and human recombinant COX-2 was assessed using a COX inhibitor screening assay kit (Item No: 560131, Cayman Chemical, Ann Arbor, MI, USA) according to manufacturer’s guidelines. The 50% inhibitory concentration (IC50) of COX-1/COX-2 activity of the tested samples was determined, with the assay run, in duplicate, with two concentrations (350 and 50 µg/mL). A standard curve of eight concentrations of prostaglandin, a non-specific binding sample, and a maximum binding sample was used, as instructed in the kit manual, to determine the inhibition of the sample plant, applying the generated multiple regression best-fit line. The percentage inhibition of the two concentrations was used to calculate the IC50 [69, 70].

Experiment [1] is described as follows: DPPH free radical scavenging assay. The following applies: 30 min, 517 nm. The method, then:
One hundred mg of (AJ) EO was dissolved in 100 mL of methanol to create the stock solution (1 mg/mL). The obtained solution was mixed with methanol to obtain different concentrations (2, 3, 5, 7, 10, 20, 30, 40, 50, 80, and 100 μg/mL). One milliliter of stock solution and 1 mL of methanol were mixed with 1 mL of DPPH (Sigma-Aldrich, Steinheim, Germany). Then, the solution was kept in the dark at room temperature for 30 min. However, by replacing the plant EO solution with methanol, the blank solution was prepared. Trolox (Sigma-Aldrich, St. Louis, MO, USA) was utilized as a positive control, and the absorbance for all obtained samples was measured by spectrophotometer (Shimadzu-UV-1800, Kyoto, Japan) at 517 nm. The DPPH inhibitory potentials were estimated utilizing the following formula:I (%) = [ABSblank − ABStest]/[ABSblank]) × 100%(2) where I (%) is the percentage of DPPH inhibitory potentials.
(DPPH is a stable violet radical that fades when it is reduced.)

A further experiment has as its system HeLa. The experiment in a line: MTS cytotoxicity assay, HeLa. The format is cell-based. Conditions: Homo sapiens, 24 h, read-out: IC50 against HeLa. The method, then: (§2) The liver (Hep3B), breast (MCF-7), Human cervical (HeLa), and Colon (CACO-2) tumor cell lines were cultivated separately in RPMI-1640 media (Sigma, Norwich, UK), which was treated with 1% L-glutamine (Sigma, London, UK), 1% penicillin/streptomycin antibiotics (BI, New Delhi, India), and 10% fetal bovine serum. Cancer cells were grown at 37 °C in a humidified atmosphere with 5% CO2. Cells were seeded at 2.6 × 10^4 cells/well in a 96-well plate. […] Cell viability was evaluated by the CellTilter 96® Aqueous One Solution Cell Proliferation (MTS) Assay according to the manufacturer’s directions (Promega Corporation, Madison, WI, USA). At the end of the treatment, 20 μL of MTS solution per 100 μL of media was added to each well, and the solutions in the well plates were incubated at 37 °C for 2 h. The absorbance was measured at 490 nm.
(Tetrazolium assays rely on reduction of a dye to a coloured formazan, in cell work by metabolically active cells.)

A further experiment concerns Caco-2. The experiment in a line: MTS cytotoxicity assay, Caco-2. The following applies: Homo sapiens, 24 h, read-out: IC50 against Caco-2. Type of experiment: cell-based. The method, then:
as §2

For another experiment, the system named is HepG2. The experiment is described as follows: MTS cytotoxicity assay, HepG2. Type of experiment: cell-based. Conditions: Homo sapiens, 24 h, text names Hep3B, read-out: IC50 against HepG2.
Where [2] appears, read: Proteus vulgaris, read-out: MIC.

Regarding `CC1(C)S[C@@H]2[C@H](NC(=O)[C@H](N)c3ccccc3)C(=O)N2[C@H]1C(=O)O` [Ampicillin, ampicillin], the minimal inhibitory concentration (MIC) entry against P. aeruginosa is “R”; in the experiment on P. vulgaris (setting [2]), 18 µg/mL (≈ 51.5 µM); with MRSA, “R”; with MRSA (listed as ampicillin) it was “does not have antibacterial activity”; in the experiment on K. pneumoniae it was 1 µg/mL (≈ 2.86 µM).

Turning to `O=C(O)c1cn(C2CC2)c2cc(N3CCNCC3)c(F)cc2c1=O` [Ciprofloxacin, ciprofloxacin], the MIC against P. vulgaris and in the experiment on P. vulgaris (setting [2]) was 15 µg/mL (≈ 45.3 µM) throughout.

Turning to `CC(C(=O)O)c1cccc(C(=O)c2ccccc2)c1` (stereo not shown) [Ketoprofen], the potency estimated from few doses at human recombinant COX-2 was 40.2 ± 1.09 µg/mL (≈ 158 µM); on bovine COX-1 it was 7.89 ± 0.96 µg/mL (≈ 31 µM).

For `Cc1c(C)c2c(c(C)c1O)CCC(C)(C(=O)O)O2` (stereo not shown) [Trolox], the “IC50 against DPPH” value in experiment [1] is given as 1.58 ± 1.49 ^a µg/mL.

Consider `COc1cccc2c1C(=O)c1c(O)c3c(c(O)c1C2=O)C[C@@](O)(C(=O)CO)C[C@@H]3O[C@H]1C[C@H](N)[C@H](O)[C@H](C)O1` [doxorubicin], for which the IC50 in the experiment with HeLa was 0.84 ± 0.03 µg/mL (≈ 1.55 µM); in the experiment on Caco-2, 0.37 ± 0.08 µg/mL (≈ 0.681 µM); in the experiment with HepG2 it was 1.21 ± 0.05 µg/mL (≈ 2.23 µM).

The record behind these values is PMC8126209, “Phytochemical Profile and In Vitro Antioxidant, Antimicrobial, Vital Physiological Enzymes Inhibitory and Cytotoxic Effects of Artemisia jordanica Leaves Essential Oil from Palestine” (Molecules, 2021).
